Measured values as given in PubChem BioAssay AID256 (DTP/NCI, 2004).
Several values for one entry are separate records, joined by “and”; a condition that tells them apart may be missing. Equal values may be shown once. Inconclusive results and toxic doses are left out.

Test system: CD2F1 mice, L1210 leukemia ip, survival T/C
Test: NCI In Vivo Anticancer Drug Screen. Data for tumor model L1210 Leukemia (intraperitoneal) in CD2F1 (CDF1) mice
Conditions: higher = longer survival
Method in brief: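 Ratio T/C, where T is the treated-group value and C the vehicle-dosed control value, from mice implanted with a transplantable tumor.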

[1] = endpoint: mean survival time, dose: 100.0 mg/kg/injection, schedule: Q04DX003 (ip), vehicle: saline with Tween-80
[2] = endpoint: mean survival time, dose: 200.0 mg/kg/injection, schedule: Q04DX003 (ip), vehicle: saline with Tween-80
[3] = endpoint: mean survival time, dose: 400.0 mg/kg/injection, schedule: Q04DX003 (ip), vehicle: saline with Tween-80
[4] = endpoint: mean survival time, dose: 50.0 mg/kg/injection, schedule: Q01DX009 (ip), vehicle: saline with Tween-80
[5] = endpoint: mean survival time, dose: 100.0 mg/kg/injection, schedule: Q01DX009 (ip), vehicle: saline with Tween-80
[6] = endpoint: mean survival time, dose: 200.0 mg/kg/injection, schedule: Q01DX009 (ip), vehicle: saline with Tween-80
[7] = endpoint: mean survival time, dose: 400.0 mg/kg/injection, schedule: Q01DX009 (ip), vehicle: saline with Tween-80
[8] = endpoint: mean survival time, dose: 100.0 mg/kg/injection, schedule: Q01DX001 (ip), vehicle: saline with Tween-80
[9] = endpoint: mean survival time, dose: 200.0 mg/kg/injection, schedule: Q01DX001 (ip), vehicle: saline with Tween-80
[10] = endpoint: mean survival time, dose: 400.0 mg/kg/injection, schedule: Q01DX001 (ip), vehicle: saline with Tween-80
[11] = endpoint: mean survival time, dose: 25.0 mg/kg/injection, schedule: Q01DX009 (ip), vehicle: saline with Tween-80
[12] = endpoint: mean survival time, dose: 50.0 mg/kg/injection, schedule: Q01DX001 (ip), vehicle: saline with Tween-80
[13] = endpoint: mean survival time, dose: 12.5 mg/kg/injection, schedule: Q01DX009 (ip), vehicle: saline with Tween-80
[14] = endpoint: mean survival time, dose: 100.0 mg/kg/injection, schedule: Q01DX001 (ip), vehicle: saline

CC(C(=O)O)N(C)N=O (stereo not given)
T/C (endpoint: mean survival time, dose: 50.0 mg/kg/injection, schedule: Q01DX009 (ip), vehicle: Klucel (hydroxypropylcellulose) (HPC)): 104 % of control
T/C (endpoint: mean survival time, dose: 100.0 mg/kg/injection, schedule: Q01DX009 (ip), vehicle: Klucel (hydroxypropylcellulose) (HPC)): 93 % of control
T/C (endpoint: mean survival time, dose: 200.0 mg/kg/injection, schedule: Q01DX009 (ip), vehicle: Klucel (hydroxypropylcellulose) (HPC)): 86 % of control

Cc1ccnc([N+](=O)[O-])c1
T/C [1]: 102 % of control
T/C [2]: 96 % of control
T/C [3]: 97 % of control

O=[N+]([O-])c1ccc(CNc2ncnc3c2ncn3C2OC(CO)C(O)C2O)cc1 (stereo not given)
T/C (endpoint: mean survival time, dose: 75.0 mg/kg/injection, schedule: Q01DX001 (ip), vehicle: other): 106 % of control
T/C (endpoint: mean survival time, dose: 150.0 mg/kg/injection, schedule: Q01DX001 (ip), vehicle: other): 112 % of control
T/C (endpoint: mean survival time, dose: 300.0 mg/kg/injection, schedule: Q01DX001 (ip), vehicle: other): 100 % of control

Cc1ccc(NC(=O)Nc2ccccc2C(N)=O)cc1[N+](=O)[O-]
T/C [4]: 94 % of control
T/C [5]: 98 % of control

O=c1[nH]c2ccccc2c(=O)c2ccccc12
T/C [5]: 90 % of control
T/C [1]: 101 % of control
T/C [6]: 94 % of control
T/C [2]: 97 % of control
T/C [7]: 107 % of control
T/C [3]: 101 % of control

COC(=O)/N=C(/NC(=O)OC)SC
T/C [8]: 101 % of control
T/C [9]: 103 % of control
T/C [10]: 98 % of control

COc1ccc(CN(CCO)CCCCCCN(CCO)Cc2ccc(OC)cc2)cc1
T/C [11]: 93 % of control
T/C [4]: 96 % of control
T/C [5]: 98 % of control
T/C (endpoint: median survival time, dose: 50.0 mg/kg/injection, schedule: Q04DX002 (ip), vehicle: saline): 100 % of control
T/C (endpoint: median survival time, dose: 100.0 mg/kg/injection, schedule: Q04DX002 (ip), vehicle: saline): 100 % of control

Nc1nc(N)c(-c2ccc(Cl)c(Cl)c2)c(CCc2ccc(NC(=O)Nc3ccc(S(=O)(=O)F)cc3)cc2)n1
T/C [12]: 91 % of control
T/C [8]: 91 % of control
T/C [9]: 94 % of control

O=C(Nc1ccccc1F)c1cccc(Cl)c1
T/C (endpoint: mean survival time, dose: 100.0 mg/kg/injection, schedule: Q01DX009 (ip), vehicle: saline + alcohol): 94 % of control
T/C (endpoint: mean survival time, dose: 100.0 mg/kg/injection, schedule: Q04DX003 (ip), vehicle: saline + alcohol): 95 % of control
T/C (endpoint: mean survival time, dose: 200.0 mg/kg/injection, schedule: Q01DX009 (ip), vehicle: saline + alcohol): 94 % of control
T/C (endpoint: mean survival time, dose: 200.0 mg/kg/injection, schedule: Q04DX003 (ip), vehicle: saline + alcohol): 95 % of control
T/C (endpoint: mean survival time, dose: 400.0 mg/kg/injection, schedule: Q01DX009 (ip), vehicle: saline + alcohol): 94 % of control
T/C (endpoint: mean survival time, dose: 400.0 mg/kg/injection, schedule: Q04DX003 (ip), vehicle: saline + alcohol): 94 % of control

CC(C)(C)NC(=S)Nc1ccccc1
T/C (endpoint: mean survival time, dose: 50.0 mg/kg/injection, schedule: Q04DX003 (ip), vehicle: saline with Tween-80): 100 % of control
T/C [1]: 94 % of control
T/C [2]: 91 % of control

N#CCC(N)=S
T/C [13]: 112 % of control
T/C [11]: 106 % of control
T/C [4]: 96 % of control

CN1C(=O)C=C(C=Nc2ccc(-c3ccccc3)cc2)C2CCCCC21 (stereo not given)
T/C [1]: 106 % of control
T/C [2]: 98 % of control
T/C [3]: 97 % of control

O=C1c2ccccc2C(=O)N1CCCCCBr
T/C [5]: 96 % of control
T/C [1]: 103 % of control
T/C [6]: 96 % of control
T/C [2]: 91 % of control
T/C [7]: 94 % of control
T/C [3]: 100 % of control

c1ccc2c(c1)ccn2CCCCn1ccc2ccccc21
T/C [4]: 101 % of control
T/C [5]: 101 % of control
T/C [6]: 101 % of control

O=C(CCN1CCCCC1)c1ccc(C(F)(F)F)cc1
T/C (endpoint: mean survival time, dose: 3.13 mg/kg/injection, schedule: Q01DX009 (ip), vehicle: water): 90 % of control
T/C (endpoint: mean survival time, dose: 6.25 mg/kg/injection, schedule: Q01DX009 (ip), vehicle: water): 90 % of control

Cc1cc2c(C(C)C)c(O)c(O)cc2c(O)c1-c1c(C)cc2c(C(C)C)c(O)c(O)cc2c1O
T/C (endpoint: mean survival time, dose: 12.5 mg/kg/injection, schedule: Q01DX001 (ip), vehicle: saline with Tween-80): 105 % of control
T/C [13]: 100 % of control
T/C (endpoint: mean survival time, dose: 25.0 mg/kg/injection, schedule: Q01DX001 (ip), vehicle: saline with Tween-80): 102 % of control
T/C [11]: 94 % of control
T/C [12]: 103 % of control
T/C [4]: 90 % of control

CCCCCCCCC(CCCCCCCC)CCCC1CCCC1
T/C [8]: 95 % of control
T/C [9]: 110 % of control
T/C [10]: 103 % of control

Clc1c(Cl)c(Cl)[c]([Hg][c]2c(Cl)c(Cl)c(Cl)c(Cl)c2Cl)c(Cl)c1Cl
T/C [11]: 100 % of control
T/C (endpoint: mean survival time, dose: 25.0 mg/kg/injection, schedule: Q04DX003 (ip), vehicle: saline): 103 % of control
T/C [4]: 103 % of control
T/C (endpoint: mean survival time, dose: 50.0 mg/kg/injection, schedule: Q04DX003 (ip), vehicle: saline): 97 % of control
T/C [5]: 97 % of control
T/C [1]: 96 % of control
T/C (endpoint: mean survival time, dose: 100.0 mg/kg/injection, schedule: Q04DX003 (ip), vehicle: saline): 97 % of control

NC(=O)c1[nH]cnc1O
T/C (endpoint: median survival time, dose: 25.0 mg/kg/injection, schedule: Q01DX005 (ip), vehicle: saline with Tween-80): 109 % of control and 110 % of control
T/C (endpoint: median survival time, dose: 50.0 mg/kg/injection, schedule: Q01DX005 (ip), vehicle: saline with Tween-80): 113 % of control and 112 % of control
T/C (endpoint: median survival time, dose: 100.0 mg/kg/injection, schedule: Q01DX005 (ip), vehicle: saline with Tween-80): 116 % of control and 119 % of control
T/C (endpoint: median survival time, dose: 144.0 mg/kg/injection, schedule: Q01DX005 (ip), vehicle: saline with Tween-80): 117 % of control
T/C (endpoint: median survival time, dose: 200.0 mg/kg/injection, schedule: Q01DX005 (ip), vehicle: saline with Tween-80): 118 % of control and 120 % of control
T/C (endpoint: median survival time, dose: 400.0 mg/kg/injection, schedule: Q01DX005 (ip), vehicle: saline with Tween-80): 120 % of control

NC(=O)C(c1cccs1)c1cccs1
T/C (endpoint: mean survival time, dose: 100.0 mg/kg/injection, schedule: Q04DX002 (ip), vehicle: saline with Tween-80): 93 % of control
T/C (endpoint: mean survival time, dose: 200.0 mg/kg/injection, schedule: Q04DX002 (ip), vehicle: saline with Tween-80): 87 % of control
T/C (endpoint: mean survival time, dose: 400.0 mg/kg/injection, schedule: Q04DX002 (ip), vehicle: saline with Tween-80): 90 % of control

O=C(CN1CC1)NCCCCCCCNC(=O)CN1CC1
T/C (endpoint: mean survival time, dose: 14.6 mg/kg/injection, schedule: Q01DX001 (ip), vehicle: carboxymethylcellulose (CMC)): 158 % of control
T/C (endpoint: mean survival time, dose: 50.0 mg/kg/injection, schedule: Q01DX001 (ip), vehicle: carboxymethylcellulose (CMC)): 150 % of control

Cc1cc2nc(Cc3ccccc3)[nH]c2cc1C
T/C [13]: 102 % of control
T/C [11]: 95 % of control
T/C [4]: 91 % of control
T/C [1]: 94 % of control
T/C [2]: 86 % of control

CC1C(OC(=O)CCl)CCC2C1(C)CCC1C2(C)CCC2(C)C3CC(C)(C)CCC3(C)CCC12C (stereo not given)
T/C [14]: 97 % of control
T/C (endpoint: mean survival time, dose: 200.0 mg/kg/injection, schedule: Q01DX001 (ip), vehicle: saline): 97 % of control
T/C (endpoint: mean survival time, dose: 400.0 mg/kg/injection, schedule: Q01DX001 (ip), vehicle: saline): 97 % of control

O=C1CCN(Cc2ccccc2)C(=O)N1
T/C [4]: 97 % of control
T/C [5]: 98 % of control
T/C [1]: 106 % of control
T/C [6]: 98 % of control
T/C [2]: 97 % of control

COc1cc2c(cc1O)CCCC=C2
T/C [4]: 100 % of control
T/C [5]: 96 % of control
T/C [6]: 92 % of control

CC(C)(C)OC1C2C=CC1C=C2 (stereo not given)
T/C [8]: 100 % of control
T/C [9]: 91 % of control
T/C [10]: 88 % of control

O=C(O)/C=N/NS(=O)(=O)c1ccccc1
T/C (endpoint: mean survival time, dose: 12.5 mg/kg/injection, schedule: Q01DX009 (ip), vehicle: water): 99 % of control
T/C (endpoint: mean survival time, dose: 25.0 mg/kg/injection, schedule: Q01DX009 (ip), vehicle: water): 103 % of control
T/C (endpoint: mean survival time, dose: 50.0 mg/kg/injection, schedule: Q01DX009 (ip), vehicle: water): 113 % of control
T/C (endpoint: mean survival time, dose: 100.0 mg/kg/injection, schedule: Q01DX009 (ip), vehicle: water): 114 % of control

C[CH2][Pb]([CH2]C)([CH2]C)[O]C(=O)COc1ccccc1
T/C (endpoint: mean survival time, dose: 1.5 mg/kg/injection, schedule: Q04DX003 (ip), vehicle: Klucel (hydroxypropylcellulose) (HPC)): 104 % of control
T/C (endpoint: mean survival time, dose: 3.0 mg/kg/injection, schedule: Q04DX003 (ip), vehicle: Klucel (hydroxypropylcellulose) (HPC)): 97 % of control
T/C (endpoint: mean survival time, dose: 6.0 mg/kg/injection, schedule: Q04DX003 (ip), vehicle: Klucel (hydroxypropylcellulose) (HPC)): 100 % of control
T/C (endpoint: mean survival time, dose: 12.0 mg/kg/injection, schedule: Q04DX003 (ip), vehicle: Klucel (hydroxypropylcellulose) (HPC)): 104 % of control
T/C (endpoint: mean survival time, dose: 24.0 mg/kg/injection, schedule: Q04DX003 (ip), vehicle: Klucel (hydroxypropylcellulose) (HPC)): 86 % of control

CCOC1(C)OC2C(CO)OC(n3ccc4c(N)ncnc43)C2O1 (stereo not given)
T/C [14]: 111 % of control
